Source: ChEMBL document CHEMBL1155608, “Malyngamides O and P from the sea hare Stylocheilus longicauda” (J Nat Prod, 2000)

Assays:
Assay type in all cases: functional, cell-based
P388 = assay: Cytotoxicity against mouse P388 cells
A549 = assay: Cytotoxicity against human A549 cells
HT-29 = assay: Cytotoxicity against human HT29 cells

Measured: IC50

CCCCCCC[C@@H](C/C=C/CCC(=O)N(C)C/C(=C\Cl)C/C(=C\C(=O)OC)OC)OC [MALYNGAMIDE O]
2 µg/mL: P388 | A549 | HT-29
